According to paper PMC5147005 (The Journal of Cell Biology, 2016):

T1: MFN1-MGD (minimal GTPase domain of human MFN1) (Homo sapiens, UniProt Q8IWA4, DEL365-693)
T1 sequence (Q8IWA4 1-364): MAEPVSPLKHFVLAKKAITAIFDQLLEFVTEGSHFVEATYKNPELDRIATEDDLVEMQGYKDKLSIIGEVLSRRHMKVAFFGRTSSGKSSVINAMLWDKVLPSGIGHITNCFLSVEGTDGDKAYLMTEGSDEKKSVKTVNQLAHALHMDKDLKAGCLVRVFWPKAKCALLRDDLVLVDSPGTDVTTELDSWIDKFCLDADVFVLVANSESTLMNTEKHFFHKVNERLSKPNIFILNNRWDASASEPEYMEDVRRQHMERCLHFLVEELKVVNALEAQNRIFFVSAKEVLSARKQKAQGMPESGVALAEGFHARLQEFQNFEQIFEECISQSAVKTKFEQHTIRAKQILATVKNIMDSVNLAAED
T1 sequence (Q8IWA4 694-741): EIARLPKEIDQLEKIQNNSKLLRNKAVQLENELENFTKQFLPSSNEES


Assays:
[1] = target: T1, MFN1-MGD (minimal GTPase domain of human MFN1); experiment: isothermal titration calorimetry; assay type: binding
AUC = target: the molecule itself; experiment: AUC

Row | Kd [1] [µM] | Molecule | stoichiometry N (AUC)
1 | 91.7 | Nc1nc2c(ncn2[C@@H]2O[C@H](COP(=O)(O)OP(=O)(O)O)[C@@H](O)[C@H]2O)c(=O)[nH]1 [GDP] | 
2 |  | human MFN1 minimal GTPase domain (MGD), wild type (domain or fragment) MAEPVSPLKHFVLAKKAITAIFDQLLEFVTEGSHFVEATYKNPELDRIATEDDLVEMQGYKDKLSIIGEVLSRRHMKVAFFGRTSSGKSSVINAMLWDKVLPSGIGHITNCFLSVEGTDGDKAYLMTEGSDEKKSVKTVNQLAHALHMDKDLKAGCLVRVFWPKAKCALLRDDLVLVDSPGTDVTTELDSWIDKFCLDADVFVLVANSESTLMNTEKHFFHKVNERLSKPNIFILNNRWDASASEPEYMEDVRRQHMERCLHFLVEELKVVNALEAQNRIFFVSAKEVLSARKQKAQGMPESGVALAEGFHARLQEFQNFEQIFEECISQSAVKTKFEQHTIRAKQILATVKNIMDSVNLAAEDGSGSGSGGSEIARLPKEIDQLEKIQNNSKLLRNKAVQLENELENFTKQFLPSSNEES | 2
